Literature values as cited in patent publication US11660375B2, “Product and method for the treatment of bioprosthetic tissues” (Epygon, priority 2017, dated 2023).
Read-outs that look alike come from different tables or passages of the source.

Tests used:
[1] = tested on: porcine aortic valve cusps; conditions: rat subdermal, 60 days, pretreatment pH 7.4 for 24 hours
[2] = tested on: Porcine aortic valve bioprostheses; conditions: sheep, 150 days, leaflet calcium
[3] = tested on: porcine aortic cusps
[4] = tested on: pericardium samples pretreated with 0.6% Glutaraldehyde; conditions: after 6 months implantation, juvenile rats, subcutaneous
[5] = oral administration; IPCS, WHO Food Additives Series 32
[6] = at 25° C.

In the case of “2-hydroxypropyl β-Cyclodextrin [HP p-CD]”, the “toxicity on parenteral administration” value is given as “don't show any toxicity” and the “toxicity on parenteral administration” value (listed as 2-hydroxypropyl β-Cyclodextrin) is given as “appear to be safe”.

In the case of CCO [60% Ethanol, Ethanol], the calcium level ([1]; listed as 60.0% Ethanol) is listed as 28.5±12.0 μg/mg tissue.

For CCO [80% Ethanol, Ethanol], the calcium level ([1]; listed as 80.0% Ethanol) is listed as 1.87±0.29 μg/mg tissue and the Ca [2] is listed as 5.22 ± 2.94.

In the case of CCO [Ethanol], the Ca [3] is listed as 13.3+/−5.6 μg/mg tissue.

In the case of OC[C@H]1O[C@H](O[C@H]2[C@H](O)[C@@H](O)[C@@H](OC[C@H]3O[C@@H]4O[C@H]5[C@H](O)[C@@H](O)[C@@H](O[C@H]6[C@H](O)[C@@H](O)[C@@H](O[C@H]7[C@H](O)[C@@H](O)C(O[C@H]8[C@H](O)[C@@H](O)[C@@H](O[C@H]9[C@H](O)[C@@H](O)[C@@H](O[C@H]%10[C@H](O)[C@@H](O)[C@@H](O[C@H]3[C@H](O)[C@H]4O)O[C@@H]%10CO)O[C@@H]9CO)O[C@@H]8CO)O[C@@H]7CO)O[C@@H]6CO)O[C@@H]5CO)O[C@@H]2CO)[C@H](O)[C@@H](O)[C@@H]1O [Maltosyl β-Cyclodextrin], the “toxicity on parenteral administration” value is given as “appear to be safe”.

In the case of CCCCCCCC/C=C\CCCCCCCC(=O)OCCOCC(OCCO)C1OCC(OCCO)C1OCCO (stereo not drawn) [surfactant, Tween 80], the calcium content [4] is listed as 42.9±12.7 μg/mg dry tissue.

For OC[C@H]1O[C@@H]2O[C@H]3[C@H](O)[C@@H](O)[C@@H](O[C@H]4[C@H](O)[C@@H](O)[C@@H](O[C@H]5[C@H](O)[C@@H](O)[C@@H](O[C@H]6[C@H](O)[C@@H](O)[C@@H](O[C@H]7[C@H](O)[C@@H](O)[C@@H](O[C@H]1[C@H](O)[C@H]2O)O[C@@H]7CO)O[C@@H]6CO)O[C@@H]5CO)O[C@@H]4CO)O[C@@H]3CO [α-Cyclodextrins, α-Cyclodextrin], the “toxicity on parenteral administration” value is listed as “don't show any toxicity”.

For OC[C@H]1O[C@@H]2O[C@H]3[C@H](O)[C@@H](O)[C@@H](O[C@H]4[C@H](O)[C@@H](O)[C@@H](O[C@H]5[C@H](O)[C@@H](O)[C@@H](O[C@H]6[C@H](O)[C@@H](O)[C@@H](O[C@H]7[C@H](O)[C@@H](O)[C@@H](O[C@H]8[C@H](O)[C@@H](O)[C@@H](O[C@H]1[C@H](O)[C@H]2O)O[C@@H]8CO)O[C@@H]7CO)O[C@@H]6CO)O[C@@H]5CO)O[C@@H]4CO)O[C@@H]3CO [β-Cyclodextrin], the acceptable daily intake [5] is given as 5 mg/kg of body weight and the “toxicity on parenteral administration” value is given as “nephrotoxic”.

In the case of OC[C@H]1O[C@@H]2O[C@H]3[C@H](O)[C@@H](O)[C@@H](O[C@H]4[C@H](O)[C@@H](O)[C@@H](O[C@H]5[C@H](O)[C@@H](O)[C@@H](O[C@H]6[C@H](O)[C@@H](O)[C@@H](O[C@H]7[C@H](O)[C@@H](O)[C@@H](O[C@H]8[C@H](O)[C@@H](O)[C@@H](O[C@H]9[C@H](O)[C@@H](O)[C@@H](O[C@H]1[C@H](O)[C@H]2O)O[C@@H]9CO)O[C@@H]8CO)O[C@@H]7CO)O[C@@H]6CO)O[C@@H]5CO)O[C@@H]4CO)O[C@@H]3CO [γ-Cyclodextrin], the “toxicity on parenteral administration” value is listed as “appear to be safe”.

For “Sulfobutyl Ether7 β-Cyclodextrin [SBE7 β-CD]”, the water solubility [6] is given as roughly 70 g/100 ml and the “toxicity on parenteral administration” value is given as “appear to be safe”.

In the case of Sulphated β-Cyclodextrin, the “toxicity on parenteral administration” value is given as “appear to be safe”.
